Tests used:
NF-κB signaling pathway = assay: NF-κB p65 translocation and IKK/IκB phosphorylation in LPS-induced BV-2 cells; type: cell-based, murine; settings: 1 μg/ml LPS, 10, 20, 50 μM, 3 h
Protocol: (§1) BV2 cells were seeded on glass coverslips and treated with circumdatin D in the presence or absence of LPS for indicated time. After that, the cells were washed twice with PBS and fixed with cold 4% paraformaldehyde for 30 min. Then, the cells were permeabilized with 0.1% Triton X-100 for 10 min and blocked with 5% bovine serum albumin for 1 h. After incubation with primary antibodies overnight at 4°C, the cells were incubated with Alexa Fluor 488-conjugated secondary antibodies (Proteintech, USA) for 1 h at room temperature. Furthermore, Hochest 33342 was added to stain cell nuclei. Images were acquired and analyzed using a confocal microscope (Leica, Germany).
(§2) Total cell proteins were lysed using cell extraction buffer containing phenylmethylsulfonyl ﬂuoride and protease inhibitor cocktail. The cytosolic and nuclear extracts were collected using the Nuclear and Cytosolic extraction kit. The protein extracts were separated on SDS-PAGE and transferred to PVDF membranes (Millipore). The membrane was blocked with 5% nonfat milk for 1 h at room temperature, and incubated with indicated primary antibodies overnight at 4°C. After washing, the membrane was incubated with secondary antibodies conjugated to horseradish peroxidase (Proteintech, USA) at room temperature for 1 h. Then, the proteins of interest were visualized utilizing a chemiluminescence (ECL) detection system. The relative optical densities were analyzed using the Image Master™ 2D Elite software.

BV-2 cells [1] = assay: MTT cytotoxicity / cell survivability in BV-2 cells; type: cell-based, murine; settings: 1 μg/ml LPS, doses 0–100 μM, 48 h
Protocol: (§3) In vitro cytotoxicity was detected using the MTT assay. Cells were treated with different concentrations of circumdatins in the presence or absence of LPS for 48 h. Then, MTT reagent was added to each well and the plates were further incubated at 37°C for 4 h. The absorbance was read at 570 nm using a microplate spectrophotometer (Thermo Scientifics, USA).
(§4) Cell surviability was detected using the MTT assay. Cells were seeded in 96-well plates and incubated overnight, following which the cells were treated with different concentrations of circumdatins with or without 1µg/mL of LPS for indicated time. Then, the cells were subsequently cultured with MTT and incubated for 4 hours at 37°C. Thereafter, the purple formazan dye was dissolved in DMSO and the absorbance was measured at 570 nm.

primary microglia cells [2] = assay: NO, TNF-α and IL-1β production in LPS-induced primary microglia; type: cell-based, Sprague Dawley rats; settings: 1.0 μg/ml LPS, 10, 20, 50 μM
Protocol: (§5) Primary microglia were prepared from the cortical tissue of neonatal (1–3 d) Sprague Dawley rats as [Ni and Aschner (2010)] described and primary cortical neurons were isolated from embryos of pregnant Sprague Dawley rats of E-18 ([Zeng et al., 2012]). All experimental manipulations with the animals was reviewed and approved by the animal experimental ethics committee of Peking University. The animals used in the work were performed in accordance with the Animal Care and Use Guidelines of Peking University.
The NO levels in culture media was determined using a Griess method. Cells were treated with different concentrations of circumdatins in the presence or absence of LPS for 24 h. After that, the supernatant fraction of the culture media was collected and mixed with the same volume of Griess reagent (1% sulfanilamide/0.1% naphthyl ethylene diamine dihydrochloride/2% H3PO4). Then, the absorbance was measured at 540 nm using a microplate spectrophotometer (Thermo Scientifics, USA). The concentration of nitrite was calculated from a calibration curve obtained from standards sodium nitrite solutions.
Cells were treated with different concentrations of circumdatin D in the presence or absence of LPS for indicated time. […] The levels of TNF-α and IL-β in the supernatants were determined by ELISA kits according to the manufacturer's instructions.

primary microglia cells [3] = assay: MTT assay in primary microglia; type: cell-based, Sprague Dawley rats; settings: untreated and LPS-stimulated cells, 1–100 μM, 48 h
Protocol: as §5, §3, §4

primary cortical neurons = assay: MTT assay in primary neuron-enriched cells; type: cell-based, Sprague Dawley rats; settings: 48 h, 1–100 μM
Protocol: as §5, §3

[4] = test system: JaK2/STAT3 signaling pathway; assay: JaK2/STAT3 phosphorylation and STAT3 translocation in LPS-induced BV-2 cells; type: cell-based, murine; settings: 1 μg/ml LPS, 10, 20, 50 μM, 3 h
Protocol: as §1
as §2, with “Then, the proteins of interest were visualized utilizing a chemiluminescence (ECL) detection system.” left out

Recombinant AChE = Recombinant AChE (Homo sapiens, UniProt P22303); assay: biochemical; settings: SPR, 25°C, 1:1 Langmuir binding model; read-out: AChE Affinity Kd
Recombinant AChE, sequence (P22303 32-614): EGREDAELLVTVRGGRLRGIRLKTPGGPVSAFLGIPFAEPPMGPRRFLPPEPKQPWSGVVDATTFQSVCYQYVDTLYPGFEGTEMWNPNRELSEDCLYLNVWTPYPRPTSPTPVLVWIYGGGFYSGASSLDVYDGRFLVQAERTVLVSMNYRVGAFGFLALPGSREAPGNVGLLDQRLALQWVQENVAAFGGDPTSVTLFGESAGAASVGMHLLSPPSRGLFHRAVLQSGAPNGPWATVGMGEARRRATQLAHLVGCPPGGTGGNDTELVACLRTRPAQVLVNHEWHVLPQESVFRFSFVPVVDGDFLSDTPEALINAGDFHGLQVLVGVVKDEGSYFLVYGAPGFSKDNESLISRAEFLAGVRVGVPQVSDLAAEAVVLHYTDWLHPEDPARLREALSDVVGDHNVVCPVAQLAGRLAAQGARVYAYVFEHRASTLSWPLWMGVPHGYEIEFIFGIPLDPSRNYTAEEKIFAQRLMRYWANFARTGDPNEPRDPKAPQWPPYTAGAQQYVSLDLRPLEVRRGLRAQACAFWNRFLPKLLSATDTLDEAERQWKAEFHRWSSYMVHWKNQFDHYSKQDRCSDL
Protocol: The experiments for surface plasmon resonance (SPR) interaction were conducted at 25°C using the Biacore T200 system (GE Healthcare, Sweden). Recombinant AChE diluted in sodium acetate buffer (100 mM, pH 4.5) was used as the stock for the following experiments. CM5 sensor chips were coupled with AChE using an amine coupling kit (GE Healthcare, Buckinghamshire, UK). Thereafter, different concentrations of compounds were injected as analytes using PBS-P (10mM phosphate buffer with 2.7 mM KCl and 137 mM NaCl, 0.05% polysorbate 20, […]) as running buffer. For binding assays, the analytes were introduced with a 60 s contact time followed by a 60 s dissociation time at a flow rate of 45 μl/min. The surface was regenerated with 10 mM glycine (pH 3.0) for 30 s. The affinity constants were calculated using the 1:1 Langmuir binding model of Biacore evaluation software (T200 Version 1.0).

C. elegans CL4176 [5] = assay: Nematode toxicity assay; type: in vivo, Caenorhabditis elegans; settings: 24 and 48 h, tested dose, Figure S19
Protocol: To eliminate the confounding factor of toxicity in the procedure, CL4176 worms were exposed to increasing concentrations of circumdatin D dissolved in NGM (0, 100, 200, 500 µM) for 24 h and 48h at 16 °C, respectively. Further, nematodes were exposed to 0.4% DMSO as the negative control. The animals were scored as live or death using a Motic dissecting microscope (Motic Inc., LTD., Hong Kong, China). The worms were considered as death if there was no response when gently touched with a platinum wire. Each independent assay included three NGM plates with thirty worms in each one. Toxicity was expressed as a total percentage of worm survival.

C. elegans CL4176 [6] = assay: qRT-PCR of ace-1, ace-2, F22E5.6 and ZC239.12 in CL4176; type: in vivo, Caenorhabditis elegans; settings: CL4176, 36 h post temperature up-shift
Source text: Related gene expression levels were detected as [Xin et al. (2013)] described. After treatment, CL4176 worms were collected and total RNA was extracted using TRIzol method. The cDNA was synthesized using cDNA synthesis kit (Invitrogen) according to manual instructions. The mRNA expression of target genes viz. F22E5.6, ZC239.12, ace-1 and ace-2 was quantified in comparison to housekeeping gene F23B2.13 using SYBR green detection method on ABI 7500 system (Applied Biosystems). The relative gene expression was calculated using comparative Ct (ΔΔCt) method. The following primers in Table 2 were used in this study.

BV-2 cells [7] = assay: ELISA for TNF-α and IL-1β in LPS-induced BV-2 cells; type: cell-based, murine; settings: 1 μg/ml LPS, 10, 20, 50 μM, 6 h TNF-α, 8 h IL-1β
Protocol: Cells were treated with different concentrations of circumdatin D in the presence or absence of LPS for indicated time. Then, the culture media were collected and centrifuged at 12,000g, 4°C for 20 min. The levels of TNF-α and IL-β in the supernatants were determined by ELISA kits according to the manufacturer's instructions.

COc1ccc2c(c1)C(=O)N1CCC[C@H]1c1nc3ccc(OC)cc3c(=O)n1-2 [circumdatin D]
NF-κB nuclear translocation (immunofluorescence) (NF-κB signaling pathway): inhibited LPS-induced NF-κB nuclear translocation | nuclear NF-κB p65 levels (Western blot) (NF-κB signaling pathway): reduced nuclear NF-κB p65 levels significantly | phosphorylation levels of IKK and IκB (NF-κB signaling pathway): down-regulated the phosphorylation levels of IKK and IκB | cytotoxicity in the presence of LPS (MTT) (BV-2 cells [1]): did not induce significant cellular death | LPS-stimulated production of NO, TNF-α and IL-1β (primary microglia cells [2]): significantly decreased the production of NO, TNF-α and IL-1β | toxicity in primary microglial cultures (MTT) (primary microglia cells [3]): low toxicity | direct toxicity to neurons (MTT) (primary cortical neurons): no direct toxic to neurons | LPS-induced phosphorylation of JaK2 [4]: strongly reduced LPS-induced phosphorylation of JaK2 | phosphorylation and nuclear translocation of STAT3 [4]: effectively inhibited the phosphorylation and translocation of STAT3 | Kd (Recombinant AChE): 1900 nM | toxicity on CL4176 nematodes (survival) (C. elegans CL4176 [5]): no toxicity on the normal survival of the nematode | AChE genes (ace-1, ace-2) and inflammation related genes (F22E5.6, ZC239.12) expression (C. elegans CL4176 [6]): inhibited temperature raise-induced AChE and inflammation-associated gene expressions | LPS-induced TNF-α and IL-1β production (ELISA) (BV-2 cells [7]): suppressed LPS-induced TNF-α and IL-1β production

From PMC7261837, “Circumdatin D Exerts Neuroprotective Effects by Attenuating LPS-Induced Pro-Inflammatory Responses and Downregulating Acetylcholinesterase Activity In Vitro and In Vivo” (Frontiers in Pharmacology, 2020)
